# Measured values taken from patent US8927023B2, “Biocompatible, non-biodegradable, non-toxic polymer useful for nanoparticle pharmaceutical compositions” (Fresenius Kabi Oncology Limited, priority 2005, dated 2015).
# Columns and labels:
# [1] = Clarity of the solution of the nanoparticulate composition; type: physicochemical
# Description: (§1) This could be exemplified with respect to pharmaceutical compositions of two poorly water-soluble anticancer drugs or compounds, viz.
# [2] = Average particle size of the nanoparticles in the pharmaceutical composition; type: physicochemical; conditions: 1 ml ethanol solution into ≈35 ml
# Description: as §1
# [3] = Stability: hours the drug remains in solution without precipitation
# Description: By reference to the term “stability”, it is to be construed to mean the period, counted in hours, wherein the poorly water-soluble drug or compound remains in solution in the pharmaceutical composition comprising the same, without any precipitation of the drug or compound from therein.
# [4] = 1 ml ethanol solution into ≈35 ml, needle 0.305 mm, addition 3 Secs
# [5] = 1 ml ethanol solution into ≈35 ml, needle 1.270 mm, addition 2 Secs
# [6] = 1 ml ethanol solution into ≈35 ml, needle 1.270 mm, addition 6 Secs
# [7] = 15 ml ethanol solution into ≈500 ml, needle 0.330 mm, addition 18 Secs
# [8] = 15 ml ethanol solution into ≈500 ml, needle 0.711 mm, addition 10 Secs
smiles,measurement,setting,value
C=C(C)[C@@H]1CC[C@]2(C(=O)O)CC[C@]3(C)C(CCC4[C@@]5(C)Cc6c([nH]c7ccc(Cl)cc67)C(C)(C)C5CC[C@]43C)C12 (stereo partly drawn) [DRF-4012],Clarity Of The Solution,[1]; [4],Clear
same,Clarity Of The Solution,[1]; [5],Opalescent
same,Clarity Of The Solution,[1]; [6],Milky
same,Average Particle Size (nm),"[2]; needle 0.305 mm, addition 6 Secs",200 nm
same,Average Particle Size (nm),"[2]; needle 0.465 mm, addition 2 Secs",90 nm
same,Average Particle Size (nm),"[2]; needle 0.467 mm, addition 6 Secs",200 nm
same,Average Particle Size (nm),"[2]; needle 0.711 mm, addition 2 Secs",100 nm
same,Average Particle Size (nm),"[2]; needle 0.711 mm, addition 6 Secs",240 nm
same,Average Particle Size (nm),"[2]; needle 1.270 mm, addition 2 Secs",130 nm
same,Average Particle Size (nm),"[2]; needle 1.270 mm, addition 6 Secs",8100 nm
same,Average Particle Size (nm),"[2]; nanoparticles with the polymer, needle 0.305 mm, addition 3 Secs",70 nm
CC(=O)O[C@H]1C(=O)[C@@]2(C)[C@H]([C@H](OC(=O)c3ccccc3)[C@]3(O)C[C@H](OC(=O)[C@H](O)[C@@H](NC(=O)c4ccccc4)c4ccccc4)C(C)=C1C3(C)C)[C@]1(OC(C)=O)CO[C@@H]1C[C@@H]2O [Paclitaxel],Clarity Of The Solution,[1]; [4],Clear
same,Clarity Of The Solution,[1]; [5],Opalescent
same,Clarity Of The Solution,[1]; [6],Milky
same,Clarity Of The Solution,[1]; [7],Clear
same,Clarity Of The Solution,[1]; [8],Clear
same,Stability,[3]; [4],>24 h
same,Stability,"[3]; 1 ml ethanol solution into ≈35 ml, needle 0.305 mm, addition 6 Secs",<4 h
same,Stability,"[3]; 1 ml ethanol solution into ≈35 ml, needle 0.467 mm, addition 2 Secs",20 h
same,Stability,"[3]; 1 ml ethanol solution into ≈35 ml, needle 0.467 mm, addition 6 Secs",<2 h
same,Stability,"[3]; 1 ml ethanol solution into ≈35 ml, needle 0.711 mm, addition 2 Secs",<10 h
same,Stability,"[3]; 1 ml ethanol solution into ≈35 ml, needle 0.711 mm, addition 6 Secs",<2 h
same,Stability,[3]; [5],<4 h
same,Stability,[3]; [6],<0.5 h
same,Stability,[3]; [7],20 h
same,Stability,[3]; [8],>24 h
same,Stability,"[3]; 15 ml ethanol solution into ≈500 ml, needle 0.711 mm, addition 15 Secs",<15 h
